The test relates to Campylobacter novel strains. Description: Antimicrobial susceptibility testing by agar dilution method (MIC).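 For all read-outs here: agar dilution MIC on HBA, used in place of the BSAC-recommended Iso-sensitest agar, across a panel of 14 antimicrobials.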 The conditions noted are these: for Distribution (%) of MIC (μg/ml) 0.03: % of novel strains with MIC 0.03 μg/ml; for Distribution (%) of MIC (μg/ml) 0.06: % of novel strains with MIC 0.06 μg/ml; for Distribution (%) of MIC (μg/ml) 0.13: % of novel strains with MIC 0.13 μg/ml; for Distribution (%) of MIC (μg/ml) 0.25: % of novel strains with MIC 0.25 μg/ml; for Distribution (%) of MIC (μg/ml) 1: % of novel strains with MIC 1 μg/ml; for Distribution (%) of MIC (μg/ml) 2: % of novel strains with MIC 2 μg/ml; for Distribution (%) of MIC (μg/ml) 4: % of novel strains with MIC 4 μg/ml; for Distribution (%) of MIC (μg/ml) 8: % of novel strains with MIC 8 μg/ml; for Distribution (%) of MIC (μg/ml) 32: % of novel strains with MIC 32 μg/ml; for Distribution (%) of MIC (μg/ml) 64: % of novel strains with MIC 64 μg/ml. Background: Agar dilution tests growth on a series of plates holding different concentrations.

Where [1] appears, read: Campylobacter novel strains, agar dilution on HBA.

Values after ≈ are worked out from the molar mass of the structure shown. Values joined by “and” are separate entries in the source; they are usually repeats but may differ in a detail not shown here. Equal values may be shown once.

This is an account of results in patent US20150284674A1, “CAMPYLOBACTER BACTERIA AND DETECTION” (priority 2012, published 2015).

In general, MIC50 refers to the lowest concentration that inhibits either 50% of growth or 50% of the strains tested, depending on the study. A high value points to lower susceptibility. For orientation: MIC90 means an inhibitory concentration at the 90% level, which refers to growth in some studies and to a panel of isolates in others. A higher MIC90 goes with weaker potency.

Experimental: Antimicrobial susceptibility testing was performed using the agar dilution method for the Campylobacter novel strains against 14 antimicrobials. […] As the strains were unable to grow on the Iso-sensitest agar (ISA) recommended by the BSAC guidelines, HBA (Table 1) was used as an alternative media.

Regarding `CC1(C)S[C@@H]2[C@H](NC(=O)[C@H](N)c3ccccc3)C(=O)N2[C@H]1C(=O)O` [Ampicillin], under “Campylobacter”, the MIC50 turned out to be 1 µg/mL (≈ 2.86 µM) and the MIC90 is 2 µg/mL (≈ 5.72 µM).
Where the note is “Campylobacter”, `C=C[C@]1(C)C[C@@H](OC(=O)CSCCN(CC)CC)[C@]2(C)[C@H](C)CC[C@]3(CCC(=O)[C@H]32)[C@@H](C)[C@@H]1O` [Tiamulin] displayed an MIC50 of 2 µg/mL (≈ 4.05 µM) and an MIC90 of 2 µg/mL (≈ 4.05 µM).
For the setting “Campylobacter”, `CN(C)[C@@H]1C(O)=C(C(N)=O)C(=O)[C@@]2(O)C(O)=C3C(=O)c4c(O)cccc4[C@@](C)(O)[C@H]3C[C@@H]12` [Tetracycline] showed an MIC50 of 1 µg/mL (≈ 2.25 µM) and an MIC90 of 64 µg/mL (≈ 144 µM).
Turning to `NC[C@H]1O[C@H](O[C@H]2[C@H](O)[C@@H](O[C@H]3O[C@H](CO)[C@@H](O)[C@H](N)[C@H]3O)[C@H](N)C[C@@H]2N)[C@H](O)[C@@H](O)[C@@H]1O` [Kanamycin], for the setting “Campylobacter”, the MIC50 was 4 µg/mL (≈ 8.26 µM) and the MIC90 came out at 4 µg/mL (≈ 8.26 µM).
In the case of `[H]/N=C(/N)N[C@H]1[C@H](O)[C@@H](O)[C@H](O[C@@H]2O[C@@H](C)[C@](O)(C=O)[C@H]2O[C@@H]2O[C@@H](CO)[C@H](O)[C@@H](O)[C@@H]2NC)[C@@H](N/C(N)=N\[H])[C@@H]1O` [Streptomycin], for the setting “Campylobacter”, the MIC50 is 1 µg/mL (≈ 1.72 µM) and the MIC90 is 1 µg/mL (≈ 1.72 µM).
Take `CCN1CCN(C(=O)N[C@@H](C(=O)N[C@@H]2C(=O)N3C(C(=O)O)=C(CSc4nnnn4C)CS[C@H]23)c2ccc(O)cc2)C(=O)C1=O` [Cefoperazone]: under “Campylobacter”, the MIC50 was 64 µg/mL (≈ 99.1 µM) and the MIC90 worked out at 64 µg/mL (≈ 99.1 µM).
Under “Campylobacter”, `O=C(O)c1cn(C2CC2)c2cc(N3CCNCC3)c(F)cc2c1=O` [Ciprofloxacin] gave an MIC50 of 0.06 µg/mL (≈ 0.181 µM) and an MIC90 of 0.06 µg/mL (≈ 0.181 µM).
Polymyxin B: under “agar dilution on HBA”, the “Distribution (%) of MIC (μg/ml) 0.03” value was 0%, the “Distribution (%) of MIC (μg/ml) 0.06” value worked out at 0%, the “Distribution (%) of MIC (μg/ml) 0.13” value was 0% and the “Distribution (%) of MIC (μg/ml) 0.25” value was determined as 0%. Further, for the setting “agar dilution on HBA”, the “Distribution (%) of MIC (μg/ml) 1” value is 0%, the “Distribution (%) of MIC (μg/ml) 2” value stood at 0%, the “Distribution (%) of MIC (μg/ml) 4” value was 21.74% and the “Distribution (%) of MIC (μg/ml) 8” value turned out to be 56.52%. Besides, under “agar dilution on HBA”, the “Distribution (%) of MIC (μg/ml) 32” value is recorded as 8.70% and the “Distribution (%) of MIC (μg/ml) 64” value was determined as 0%. Under setting [1], the MIC50 was determined as 8 µg/mL and the MIC90 came out at 16 µg/mL.
Where the note is “Campylobacter”, `O=C(N[C@H](CO)[C@H](O)c1ccc([N+](=O)[O-])cc1)C(Cl)Cl` [Chloramphenicol] returned an MIC50 of 4 µg/mL (≈ 12.4 µM) and an MIC90 of 8 µg/mL (≈ 24.8 µM).
The corresponding values for `CC[C@H]1OC(=O)[C@H](C)[C@@H](O[C@H]2C[C@@](C)(OC)[C@@H](O)[C@H](C)O2)[C@H](C)[C@@H](O[C@@H]2O[C@H](C)C[C@H](N(C)C)[C@H]2O)[C@](C)(O)C[C@@H](C)C(=O)[C@H](C)[C@@H](O)[C@]1(C)O` [Ertythromycin, Erythromycin] are 1 µg/mL (≈ 1.36 µM) and 2 µg/mL (≈ 2.73 µM).
As to Gentamycin, under “agar dilution on HBA”, the “Distribution (%) of MIC (μg/ml) 0.03” value turned out to be 0%, the “Distribution (%) of MIC (μg/ml) 0.06” value is listed as 0%, the “Distribution (%) of MIC (μg/ml) 0.13” value turned out to be 0% and the “Distribution (%) of MIC (μg/ml) 1” value is listed as 0%. Also, under “agar dilution on HBA”, the “Distribution (%) of MIC (μg/ml) 2” value turned out to be 0%, the “Distribution (%) of MIC (μg/ml) 4” value is on record as 0%, the “Distribution (%) of MIC (μg/ml) 8” value is reported as 0% and the “Distribution (%) of MIC (μg/ml) 32” value is given as 0%. Further, the “Distribution (%) of MIC (μg/ml) 64” value (agar dilution on HBA) is reported as 0%. Besides, under setting [1], the MIC50 was 0.5 µg/mL and 0.50 µg/mL; the MIC90 was 0.5 µg/mL and 0.50 µg/mL.
Regarding Colistin, where the note is “agar dilution on HBA”, the “Distribution (%) of MIC (μg/ml) 0.03” value came out at 0%, the “Distribution (%) of MIC (μg/ml) 0.06” value is given as 0%, the “Distribution (%) of MIC (μg/ml) 0.13” value is listed as 0% and the “Distribution (%) of MIC (μg/ml) 0.25” value stood at 0%. For the setting “agar dilution on HBA”, the “Distribution (%) of MIC (μg/ml) 1” value was determined as 0%, the “Distribution (%) of MIC (μg/ml) 2” value came to 0%, the “Distribution (%) of MIC (μg/ml) 4” value was 8.70% and the “Distribution (%) of MIC (μg/ml) 8” value is 73.91%. Besides, for the setting “agar dilution on HBA”, the “Distribution (%) of MIC (μg/ml) 32” value turned out to be 13.04% and the “Distribution (%) of MIC (μg/ml) 64” value turned out to be 0%. Besides, the “Distribution (%) of MIC (μg/ml) 0.50” value (% of novel strains with MIC 0.50 μg/ml, agar dilution on HBA) is recorded as 0%. Under setting [1], the MIC50 turned out to be 8 µg/mL and the MIC90 was determined as 32 µg/mL.
